Measurements: PMC10341549, “Inhibitory Investigations of Acyl-CoA Derivatives against Human Lipoxygenase Isozymes” (International Journal of Molecular Sciences, 2023)
Like-named read-outs stand apart in the source and are kept apart here. Each block holds one compound with its values, some of them ahead of it.

Key:
[1] = molecular target: T1, h12-LOX (Homo sapiens, UniProt P18054); set-up: method as in PMID 37506345; details: 10 μM AA, 25 mM HEPES pH 8.00, 0.01% Triton X-100, 22 °C, published previously, ref [30], cited from earlier work
T1 construct: His tag; made in house
T1 sequence (P18054 1-663): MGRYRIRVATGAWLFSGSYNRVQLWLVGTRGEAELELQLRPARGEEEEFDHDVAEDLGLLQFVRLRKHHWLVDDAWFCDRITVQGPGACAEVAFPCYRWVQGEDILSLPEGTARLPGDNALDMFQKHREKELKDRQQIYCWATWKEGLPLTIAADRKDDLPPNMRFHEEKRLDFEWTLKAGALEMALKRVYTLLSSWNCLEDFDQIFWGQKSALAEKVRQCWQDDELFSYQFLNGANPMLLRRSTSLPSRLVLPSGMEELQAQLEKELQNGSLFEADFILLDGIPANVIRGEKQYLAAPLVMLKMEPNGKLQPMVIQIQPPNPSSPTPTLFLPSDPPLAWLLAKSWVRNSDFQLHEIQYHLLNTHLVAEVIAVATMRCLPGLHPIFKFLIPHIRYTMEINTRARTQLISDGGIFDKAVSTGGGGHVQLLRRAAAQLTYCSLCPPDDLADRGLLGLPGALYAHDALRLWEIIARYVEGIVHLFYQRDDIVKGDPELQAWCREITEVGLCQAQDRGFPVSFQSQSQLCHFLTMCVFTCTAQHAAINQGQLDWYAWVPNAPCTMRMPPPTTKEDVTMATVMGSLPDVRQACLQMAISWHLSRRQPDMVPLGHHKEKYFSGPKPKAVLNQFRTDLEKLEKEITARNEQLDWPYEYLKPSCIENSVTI

[2] = molecular target: T2, h15-LOX-1 (Homo sapiens, UniProt P16050); assay: IC50 determination against h15-LOX-1; type: biochemical; details: 10 μM AA, 25 mM HEPES pH 7.5, 0.01% Triton X-100, 22 °C
T2 construct: His tag; made in house
T2 sequence (P16050 1-662): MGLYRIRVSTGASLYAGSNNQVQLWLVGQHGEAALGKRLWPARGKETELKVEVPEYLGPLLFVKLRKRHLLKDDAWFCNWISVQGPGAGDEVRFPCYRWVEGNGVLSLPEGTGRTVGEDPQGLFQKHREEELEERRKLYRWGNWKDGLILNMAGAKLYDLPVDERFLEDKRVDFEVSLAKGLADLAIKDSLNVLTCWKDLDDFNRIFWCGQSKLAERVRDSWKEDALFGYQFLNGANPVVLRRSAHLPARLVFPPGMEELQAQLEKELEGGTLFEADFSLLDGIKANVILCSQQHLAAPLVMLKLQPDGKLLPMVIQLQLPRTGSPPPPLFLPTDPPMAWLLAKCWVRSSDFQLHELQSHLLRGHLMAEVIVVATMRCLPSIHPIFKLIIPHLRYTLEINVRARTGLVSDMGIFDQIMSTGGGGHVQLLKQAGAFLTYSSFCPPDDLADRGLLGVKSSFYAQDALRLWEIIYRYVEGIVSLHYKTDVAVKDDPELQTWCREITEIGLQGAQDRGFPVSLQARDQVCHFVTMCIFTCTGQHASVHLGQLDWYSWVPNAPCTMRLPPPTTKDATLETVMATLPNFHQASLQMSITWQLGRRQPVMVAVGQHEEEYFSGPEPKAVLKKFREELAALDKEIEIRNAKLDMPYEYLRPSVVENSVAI
Procedure: Overexpression and purification of his-tagged wild-type h12-LOX (Uniprot entry P18054), h15-LOX-1 (Uniprot entry P16050), and h15-LOX-2 (Uniprot entry O15296) were performed using nickel-affinity chromatography. The purity of h12-LOX, h15-LOX-1, and h15-LOX-2 was assessed using SDS gel as greater than 85%, and metal content was assessed with a Finnigan inductively coupled plasma mass spectrometer (ICP-MS, Thermo Fischer Scientific, San Jose, USA) via comparison with iron standard solution. Cobalt-EDTA was used as an internal standard. WT h5-LOX (UniProt entry P09917) was expressed in Rosetta 2 cells (Novagen) transformed with the pET14b-Stable-5-LOX plasmid (a gift from Marcia Newcomer of Louisiana State University) and grown in Terrific Broth containing 34 μg/mL chloramphenicol and 100 μg/mL ampicillin at 37 °C for 3.5 h, then placed at 20 °C for an additional 26 h. Cells were pelleted and resuspended in 50 mM Tris (pH 8.0), 500 mM NaCl, 20 mM imidazole with 1 μM pepstatin, 100 μM PMSF, and DNaseI (Sigma, Kanagawa, Japan). The cells were lysed in a French pressure cell and centrifuged at 40,000× g for 20 min at 4 °C. Saturated ammonium sulfate was added to achieve a final solution of 10% and inverted several times. The lysate was centrifuged at 40,000× g for 10 min at 4 °C. The pellet was discarded, and the supernatant was increased to a final concentration of 50% ammonium sulfate. The supernatant was rotated for 10 min at 4 °C then centrifuged at 40,000× g for 10 min at 4 °C. The pellet was split into 150 mg aliquots. The WT h5-LOX used for the kinetics in this work was not purified due to a dramatic loss in activity and was therefore prepared as an ammonium-sulfate precipitate.
IC50 values for each acyl-CoA were measured against h5-LOX, h12-LOX, h15-LOX-1, and h15-LOX-2. The reactions were carried out in 25 mM HEPES buffer (pH 8.00), 0.01% Triton X-100, and 10 μM AA for h12-LOX; 25 mM HEPES buffer (pH 7.5), 0.01% Triton X-100, and 10 μM AA for h15-LOX-1 and h15-LOX-2; and 50 mM HEPES buffer (pH 7.5), 100 µM EDTA, 50 mM NaCl, 200 µM ATP, and 10 μM AA for h5-LOX. IC50 reactions were implemented with h15-LOX-1 (0.125 μM), h12-LOX (0.300 μM), h15-LOX-2 (0.5 μM), and h5-LOX (∼600 nM ammonium sulfate salt) at 22 °C in a 1 cm^2 quartz cuvette containing 2 mL of the according buffer and 10 μM AA for no longer than 2 min to avoid any cleavage of the acyl-coenzyme A. Inhibitor concentrations ranging from 50 μM to 0.01 μM were used. All reactions were conducted using a Cary-UV Vis spectrophotometer (Agilent, Santa Clara, CA, USA). The fastest rates over 15 s intervals were recorded. IC50 values were obtained by determining the percent of inhibition of the enzymatic rate at ten inhibitor concentrations and plotting the rate against the inhibitor concentration, followed by a hyperbolic saturation curve fit. The saturation curve fits were performed in duplicate or triplicate, depending on the quality of the data. […] Through HPLC monitoring, we were able to determine a lack of degradation of the fatty acyl-CoAs over the first hour.

Structure (SMILES): CCCCC/C=C\C/C=C\C/C=C\C/C=C\CCCC(=O)SCCNC(=O)CCNC(=O)[C@H](O)C(C)(C)COP(=O)(O)OP(=O)(O)OC[C@H]1O[C@@H](n2cnc3c(N)ncnc32)[C@H](O)[C@@H]1OP(=O)(O)O [Arachidonoyl-CoA (20:4), arachidonoyl-coenzyme A (20:4)]
IC50 [1]: 110 ± 20 µM | IC50 [2]: > 500 µM

Structure (SMILES): CC/C=C\C/C=C\C/C=C\C/C=C\C/C=C\C/C=C\CCC(=O)SCCNC(=O)CCNC(=O)C(O)C(C)(C)COP(=O)(O)OP(=O)(O)OC[C@H]1O[C@@H](n2cnc3c(N)ncnc32)[C@H](O)[C@@H]1OP(=O)(O)O (some centres unmarked) [Docosahexaenoyl CoA (22:6), docosahexaenoyl-coenzyme A (22:6)]
IC50 [1]: > 500 µM | IC50 ([1]; listed as docosahexaenoyl-CoA (22:6)): > 200 µM | IC50 [2]: > 500 µM

Structure (SMILES): CCCCC/C=C\C/C=C\CCCCCCCC(=O)SCCNC(=O)CCNC(=O)[C@H](O)C(C)(C)COP(=O)(O)OP(=O)(O)OC[C@H]1O[C@@H](n2cnc3c(N)ncnc32)[C@H](O)[C@@H]1OP(=O)(O)O [Linoleoyl-CoA (18:2), linoleoyl-CoA]
IC50 [1]: > 200 µM

Structure (SMILES): CCCCC/C=C\C/C=C\C/C=C\CCCCC(=O)SCCNC(=O)CCNC(=O)[C@H](O)C(C)(C)COP(=O)(O)OP(=O)(O)OC[C@H]1O[C@@H](n2cnc3c(N)ncnc32)[C@H](O)[C@@H]1OP(=O)(O)O [ɣ-Linolenoyl-CoA (18:3), ɣ-linolenoyl-coenzyme A (18:3)]
IC50 [1]: > 200 µM | IC50 [2]: > 500 µM

The next lines start with results.

IC50 [2]: 39 ± 2 µM
Structure (SMILES): CCCCCCCC/C=C\CCCCCCCC(=O)SCCNC(=O)CCNC(=O)[C@H](O)C(C)(C)COP(=O)(O)OP(=O)(O)OC[C@H]1O[C@@H](n2cnc3c(N)ncnc32)[C@H](O)[C@@H]1OP(=O)(O)O [Oleoyl-CoA (18:1), oleoyl-coenzyme A (18:1)]
IC50 [1]: 32 ± 4 µM

IC50 [2]: > 500 µM
Structure (SMILES): CCCCCC/C=C\CCCCCCCC(=O)SCCNC(=O)CCNC(=O)[C@H](O)C(C)(C)COP(=O)(O)OP(=O)(O)OC[C@H]1O[C@@H](n2cnc3c(N)ncnc32)[C@H](O)[C@@H]1OP(=O)(O)O [Palmitoleoyl-CoA (16:1), palmitoleoyl-coenzyme A (16:1)]
IC50 [1]: > 500 µM | IC50 ([1]; listed as palmitoleoyl-CoA (16:1)): > 200 µM

IC50 [2]: > 500 µM
Structure (SMILES): CCCCCCCCCCCCCCCC(=O)SCCNC(=O)CCNC(=O)[C@H](O)C(C)(C)COP(=O)(O)OP(=O)(O)OC[C@H]1O[C@@H](n2cnc3c(N)ncnc32)[C@H](O)[C@@H]1OP(=O)(O)O [Palmitoyl-CoA (16:0), palmitoyl-coenzyme A (16:0)]
IC50 [1]: > 200 µM

IC50 [2]: 4.2 ± 0.6 µM
Structure (SMILES): CCCCCCCCCCCCCCCCCC(=O)SCCNC(=O)CCNC(=O)[C@H](O)C(C)(C)COP(=O)(O)OP(=O)(O)OC[C@H]1O[C@@H](n2cnc3c(N)ncnc32)[C@H](O)[C@@H]1OP(=O)(O)O [Stearoyl-CoA (18:0), stearoyl-coenzyme A (18:0)]
IC50 [1]: > 200 µM
